{
  "source": "patent US6451972B1",
  "about": "“Peptido-mimetic compounds containing RGD sequence useful as integrin inhibitors” (Sigma-Tau Industrie Farmaceutiche Riunite S.p.A., priority 1998, dated 2002)",
  "key": {"[1]": {"system": "bovine microvascular endothelial cells (BMEC) adhesion to Vitronectin", "experiment": "Adhesion inhibition of BMEC to vitronectin", "format": "cell-based", "description": "(§1) Bovine microvascular endothelial cells (BMEC) were maintained in DMEM supplemented with 20% foetal calf serum, 50 units/ml heparin, 50 μg/ml bovine brain extract, 100 units/ml gentamycin.\n(§2) BMEC were cultured on 1% gelatine-coated culture flasks and employed in experiments between passage 6-12.\n(§3) Ninety-six-well plates (Falcon) were coated with either fibronectin or vitronectin (both at […] in phosphate buffered saline) overnight at 4° C. Cells were detached using EDTA (1 mM)/trypsine (0.25%) and resuspended in own medium described above. Approximately 40,000 cells/[…] were applied for each well and allowed to adhere for 60 min at 37° C. in presence of different amounts of RGD peptides. For all experiments the non-adherent cells were removed with PBS and the remaining cells were fixed with 4% paraformaldehyde for 10 min.\n(§4) Cells were stained with 1% toluidine blue for 10 min and rinsed with water.\n(§5) Stained cells were solubilized with 1% SDS and quantified on a microtiter plate reader at 600 nm.\n(§6) Experiments described were performed in quadruplicate and repeated a minimum of three times. […]\nThe percentages of adhesion inhibition refer to 100 µM concentration of each peptide of and it's calculated by the following formula (control-sample/control×100) where control was RGD untreated sample. […] The t-test has been calculated, using the Mann Witney non parametric test, by the instat program. […]"}, "[2]": {"system": "human prostate carcinoma cells (PC3) adhesion to Vitronectin", "experiment": "Adhesion assay on vitronectin, PC3 cells", "format": "cell-based", "description": "Human prostate carcinoma cells (PC3) were purchased from American Type Collection Culture (ATCC) and maintained in RPMI supplemented with 10% foetal calf serum, 10 mM L-glutamine, 1% sodium piruvate and 100 units/ml gentamicin.\nas §3, §4, §5, §6\n(§7) The percentages of adhesion inhibition refer to 1.5 μM concentration of each peptide and were calculated by the following formula (control-sample/control×100) where control was RGD untreated sample."}, "[3]": {"system": "HMEC cells adhesion to Vitronectin", "experiment": "Adhesion assay on vitronectin, HMEC cells", "format": "cell-based", "description": "as §3, §4, §5\nExperiments described were performed in quadruplicate and repeated a minimum of three times.\nTo asses the ability of ST1646 peptide to compete with vitronectin in adhesion assay also on other cells type, we performed this experiment using microvascular endothelial cells (HMEC), human prostate carcinoma cells (PC3) and murine lung carcinoma cells (M109). Table 6 (a, b and c) show a good activity of the ST1646 peptide in inhibiting adhesion of all cells type. […]\nas §7"}, "[4]": {"system": "bovine microvascular endothelial cells (BMEC) adhesion to Fibronectin", "experiment": "Adhesion inhibition of BMEC to fibronectin", "format": "cell-based", "description": "as §1, §2, §3, §4, §5, §6\nThe percentages of adhesion inhibition refer to 100 μM concentration of each peptide of and it's calculated by the following formula (control-sample/control×100) where control was RGD untreated sample. […] The t-test has been calculated, using the Mann Witney non parametric test, by the instat program. […]"}, "[5]": {"system": "murine lung carcinoma cells (M109) adhesion to Vitronectin", "experiment": "Adhesion assay on vitronectin, M109 cells", "format": "cell-based", "description": "Murine lung carcinoma cells (M109) were purchased from American Type Collection Culture (ATCC) and maintained in RPMI supplemented with 10% foetal calf serum, 10 mM L-glutamine and 100 units/ ml gentamicin.\nas §3, §4, §5, §6, §7\nThe t-test has been calculated using the Mann Witney non parametric test, by the instat program. […]"}, "M109 lung carcinoma": {"system": "M109 lung carcinoma", "experiment": "Antitumor and antimetastatic activity on M109 lung carcinoma-bearing Balb/c mice", "format": "in vivo", "conditions": "200 μg/mouse (10 mg/kg) i.p. qdx9; lung metastases at day 16; untreated group 34", "description": "Balb/c mice were injected i.m. with M109 lung carcinoma cells (3×10^5 cells/mouse) into the hind leg muscle.\nTumors were excised at day 10th after tumor implant. Mice were sacrificed at day 16th from tumor implant and lungs were removed. The number of lung metastases has been evaluated on tumor-excised mice (3 mice/group) using a dissecting microscope.\nTVI % (tumor volume inhibition)=100−[(mean tumor weight of treated group/mean tumor weight of control group)×100]. Calculated on day 16th after tumor implant (just before mice sacrifice) on nonoperated mice."}},
  "data": [
    {"smiles": "CC(C)[C@@H]1NC(=O)[C@@H](Cc2ccccc2)NC(=O)[C@H](CC(=O)O)NC(=O)CNC(=O)[C@H](CCCNC(=N)N)NC1=O", "note": "[KESSLER, cyclo (Arg-Gly-Asp-D-Phe-Val)]", "values": [
      {"measurement": "% Inhibition", "setting": "[1]; BMEC on vitronectin, 100 µM concentration of each peptide, mean of 4 samples", "value": 96, "unit": "%"},
      {"measurement": "IC50", "setting": "[1]; BMEC, vitronectin-coated plates, 100 to 0.6 μM tested, ± SD", "value": "7.8 ± 1.2", "unit": "µM"},
      {"measurement": "% Inhibition", "setting": "[2]; 1.5 μM peptide", "value": 69, "unit": "%"},
      {"measurement": "IC50", "setting": "[2]; average of 3 experiments", "value": "2.5 ± 0.2", "unit": "µM"},
      {"measurement": "% Inhibition", "setting": "[3]; 1.5 μM peptide", "value": 39, "unit": "%"},
      {"measurement": "IC50", "setting": "[3]; average of 3 experiments", "value": "4.23 ± 0.31", "unit": "µM"},
      {"measurement": "% Inhibition", "setting": "[4]; BMEC on fibronectin, 100 μM concentration of each peptide, mean of 4 samples", "value": 30, "unit": "%"},
      {"measurement": "IC50", "setting": "[4]; BMEC, fibronectin-coated plates, 100 to 0.6 μM tested, ± SD", "value": "> 100", "unit": "µM"},
      {"measurement": "% Inhibition", "setting": "[5]; 1.5 μM peptide", "value": 70, "unit": "%"},
      {"measurement": "IC50", "setting": "[5]; average of 3 experiments", "value": "0.46 ± 0.5", "unit": "µM"},
      {"measurement": "Mean no. of metastases", "setting": "M109 lung carcinoma", "value": 23}
    ]}
  ]
}
